Assay [1] concerns Mycobacterium tuberculosis. The assay is described as follows: Antimycobacterial activity against multidrug resistance Mycobacterium tuberculosis 16883 clinical isolate assessed as reduction in bacterial cell viability incubated for 7 days by microplate alamar blue assay. It is filed as functional. The conditions noted are these: Mycobacterium tuberculosis, 16883, 168 h.
In assay [2] the test system is Mycobacterium tuberculosis. In words: Antimycobacterial activity against multidrug resistance Mycobacterium tuberculosis 16995 clinical isolate assessed as reduction in bacterial cell viability incubated for 7 days by microplate alamar blue assay. It is filed as functional. Particulars: Mycobacterium tuberculosis, 16995, 168 h.

≈ marks a conversion by molar mass, not a printed value.

Consider `O=c1nc(N2CC3CCC2CN3Cc2ccc(F)cc2)sc2c([N+](=O)[O-])cc(C(F)(F)F)cc12` (stereo not given), for which the results for the MIC in assay [1] and in assay [2] were 0.062 µM (≈ 0.0307 µg/mL) and less than 0.035 µM, respectively.
As for `CO[C@H]1/C=C/O[C@@]2(C)Oc3c(C)c(O)c4c(O)c(c(/C=N/N5CCN(C)CC5)c(O)c4c3C2=O)NC(=O)/C(C)=C\C=C\[C@H](C)[C@H](O)[C@@H](C)[C@@H](O)[C@@H](C)[C@H](OC(C)=O)[C@@H]1C` [RIFAMPIN], the minimum inhibitory concentration (MIC) in assay [1] and in assay [2] was greater than 40 µM in each case.
As for `NNC(=O)c1ccncc1` [ISONIAZID], the MIC in assay [1] and in assay [2] was greater than 40 µM each time.
Regarding `O=c1nc(N2CCN(CC3CCCCC3)CC2)sc2c([N+](=O)[O-])cc(C(F)(F)F)cc12` [MACOZINONE], the MIC in assay [1] and in assay [2] was less than 0.035 µM each time.
With `O=c1nc(N2CCC3(CCN(c4ccc(F)cc4)C3)CC2)sc2c([N+](=O)[O-])cc(C(F)(F)F)cc12`, the MIC in assay [1] and in assay [2] was less than 0.035 µM in each case.

The values above are taken from ChEMBL document CHEMBL4351009, “hERG optimizations of IMB1603, discovery of alternative benzothiazinones as new antitubercular agents” (Eur J Med Chem, 2019).
